Test results as given in the supplement of paper PMC10307832.

Tests used:
Assay in all cases: relative viability (nuclei count vs DMSO), 5 days (fraction); higher = more cells survive
201T = test system: 201T
Method in brief: (§1)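 Values are medians from duplicate plates. Each reflects relative viability, defined as the nuclei count of treated wells over that of vehicle wells. Lung cancer cell lines in 1536-well plates were pin-tool dosed one day after seeding with one drug alone or with a fixed anchor-drug dose plus five library-drug doses (not always all listed) in √10 steps, then fixed, stained and imaged at 4× after 5 days.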

BEN = test system: BEN
Method in brief: as §1

EMC-BAC-2 = test system: EMC-BAC-2
Method in brief: as §1

HARA = test system: HARA
Method in brief: as §1

HCC-44 = test system: HCC-44
Method in brief: as §1

LCLC-103H = test system: LCLC-103H
Method in brief: as §1

LOU-NH91 = test system: LOU-NH91
Method in brief: as §1

NCI-H1395 = test system: NCI-H1395
Method in brief: as §1

NCI-H1666 = test system: NCI-H1666
Method in brief: as §1

NCI-H1993 = test system: NCI-H1993
Method in brief: as §1

NCI-H2009 = test system: NCI-H2009
Method in brief: as §1

NCI-H2023 = test system: NCI-H2023
Method in brief: as §1

NCI-H2087 = test system: NCI-H2087
Method in brief: as §1

NCI-H2126 = test system: NCI-H2126
Method in brief: as §1

NCI-H2347 = test system: NCI-H2347
Method in brief: as §1

NCI-H23 = test system: NCI-H23
Method in brief: as §1

NCI-H3122 = test system: NCI-H3122
Method in brief: as §1

NCI-H441 = test system: NCI-H441
Method in brief: as §1

NCI-H522 = test system: NCI-H522
Method in brief: as §1

NCI-H596 = test system: NCI-H596
Method in brief: as §1

NCI-H647 = test system: NCI-H647
Method in brief: as §1

NCI-H650 = test system: NCI-H650
Method in brief: as §1

NCI-H727 = test system: NCI-H727
Method in brief: as §1

NCI-H838 = test system: NCI-H838
Method in brief: as §1

SMILES: CC(C)Oc1cc(Nc2nc(N[C@@H](C)c3ccc(F)cn3)ncc2Cl)n[nH]1 [AZ23] + Cc1cc(Nc2cc(N3CCN(C)CC3)nc(Sc3ccc(NC(=O)C4CC4)cc3)n2)n[nH]1 [Tozasertib] (partner 0.1 µM)
- relative viability (201T; first compound 0.01 µM): 1.03
- relative viability (201T; first compound 0.03162 µM): 0.968
- relative viability (201T; first compound 0.3162 µM): 0.985
- relative viability (BEN; first compound 0.01 µM): 0.483
- relative viability (BEN; first compound 0.03162 µM): 0.544
- relative viability (BEN; first compound 0.3162 µM): 0.527
- relative viability (EMC-BAC-2; first compound 0.01 µM): 0.262
- relative viability (EMC-BAC-2; first compound 0.03162 µM): 0.28
- relative viability (EMC-BAC-2; first compound 0.3162 µM): 0.296
- relative viability (HARA; first compound 0.03162 µM): 0.0837
- relative viability (HARA; first compound 0.3162 µM): 0.11
- relative viability (HCC-44; first compound 0.01 µM): 0.991
- relative viability (HCC-44; first compound 0.03162 µM): 0.841
- relative viability (HCC-44; first compound 0.3162 µM): 1.15
- relative viability (LCLC-103H; first compound 0.01 µM): 0.467
- relative viability (LCLC-103H; first compound 0.03162 µM): 0.491
- relative viability (LCLC-103H; first compound 0.3162 µM): 0.559
- relative viability (LOU-NH91; first compound 0.01 µM): 0.641
- relative viability (LOU-NH91; first compound 0.03162 µM): 0.72
- relative viability (LOU-NH91; first compound 0.3162 µM): 0.644
- relative viability (NCI-H1395; first compound 0.03162 µM): 0.812
- relative viability (NCI-H1395; first compound 0.3162 µM): 0.815
- relative viability (NCI-H1666; first compound 0.01 µM): 0.558
- relative viability (NCI-H1666; first compound 0.03162 µM): 0.583
- relative viability (NCI-H1666; first compound 0.3162 µM): 0.545
- relative viability (NCI-H1993; first compound 0.01 µM): 0.593
- relative viability (NCI-H1993; first compound 0.03162 µM): 0.604
- relative viability (NCI-H1993; first compound 0.3162 µM): 0.548
- relative viability (NCI-H2009; first compound 0.01 µM): 0.755
- relative viability (NCI-H2009; first compound 0.03162 µM): 0.912
- relative viability (NCI-H2009; first compound 0.3162 µM): 0.91
- relative viability (NCI-H2023; first compound 0.03162 µM): 0.457
- relative viability (NCI-H2023; first compound 0.3162 µM): 0.46
- relative viability (NCI-H2087; first compound 0.01 µM): 0.271
- relative viability (NCI-H2087; first compound 0.03162 µM): 0.245
- relative viability (NCI-H2087; first compound 0.3162 µM): 0.245
- relative viability (NCI-H2126; first compound 0.01 µM): 0.923
- relative viability (NCI-H2126; first compound 0.03162 µM): 0.939
- relative viability (NCI-H2126; first compound 0.3162 µM): 0.892
- relative viability (NCI-H2347; first compound 0.01 µM): 0.645
- relative viability (NCI-H2347; first compound 0.03162 µM): 0.609
- relative viability (NCI-H2347; first compound 0.3162 µM): 0.604
- relative viability (NCI-H23; first compound 0.03162 µM): 0.558
- relative viability (NCI-H23; first compound 0.3162 µM): 0.363
- relative viability (NCI-H3122; first compound 0.01 µM): 0.504
- relative viability (NCI-H3122; first compound 0.03162 µM): 0.456
- relative viability (NCI-H3122; first compound 0.3162 µM): 0.52
- relative viability (NCI-H441; first compound 0.01 µM): 0.813
- relative viability (NCI-H441; first compound 0.03162 µM): 0.782
- relative viability (NCI-H441; first compound 0.3162 µM): 0.609
- relative viability (NCI-H522; first compound 0.01 µM): 0.519
- relative viability (NCI-H522; first compound 0.03162 µM): 0.567
- relative viability (NCI-H522; first compound 0.3162 µM): 0.65
- relative viability (NCI-H596; first compound 0.01 µM): 1
- relative viability (NCI-H596; first compound 0.03162 µM): 0.826
- relative viability (NCI-H596; first compound 0.3162 µM): 0.827
- relative viability (NCI-H647; first compound 0.01 µM): 0.146
- relative viability (NCI-H647; first compound 0.03162 µM): 0.449
- relative viability (NCI-H647; first compound 0.3162 µM): 0.261
- relative viability (NCI-H650; first compound 0.01 µM): 0.728
- relative viability (NCI-H650; first compound 0.03162 µM): 0.75
- relative viability (NCI-H650; first compound 0.3162 µM): 0.802
- relative viability (NCI-H727; first compound 0.01 µM): 0.754
- relative viability (NCI-H727; first compound 0.03162 µM): 0.679
- relative viability (NCI-H727; first compound 0.3162 µM): 0.37
- relative viability (NCI-H838; first compound 0.01 µM): 0.267
- relative viability (NCI-H838; first compound 0.03162 µM): 0.301
- relative viability (NCI-H838; first compound 0.3162 µM): 0.274
